Test results: patent US20060100179A1, “Compositions and methods for use in targeting vascular destruction” (priority 2002, published 2006)
pIC50: −log10 of the molar value. Like-named read-outs stand apart in the source and are kept apart here.

How the values were obtained:
[1] = system: HDF (human neonatal dermal fibroblasts); test: Cell survival by clonogenic assay (colony count or MTT) in HDF
Description: (§1) Cell culture. Four commercially available human cell lines were grown in the indicated media below in 5% CO2, 80% humidity and 37EC: • 1. HL60 human leukemic cells, a pro-apoptotic cell line—cultured in RPMI 1640 fortified with 10% fetal calf serum. • 2. K562 human leukemic cells, an apoptotic-resistant cell line—cultured in RPMI 1640 fortified with 10% fetal calf serum. • 3. Human neonatal microvascular endothelial cells (HMVEC)—cultured in medium 131+microvascular growth supplement (MVGS)+attachment factor (AF)=500 ml+25 ml (AF is added 2-3 ml/T-25 flask; all reagents supplied by Cascade Biologics, Inc., Portland, Oreg.). • 4. Human neonatal dermal fibroblasts (HDF)—cultured in medium 106+low serum growth supplement (LSGS)=500 ml+10 ml (Cascade Biologics, Inc.).
(§2) Cell survival by clonogenic assay. This assay is based on a description reported by Schweitzer et al. (Expt. Haematol. 21: 573-578, 1993) with slight modifications. […] After 5 days of incubation under the standard culture conditions stated above, colonies (>40 cells) were counted by an inverted light microscope or estimated by MTT assay. IC50 values were obtained from the fitted curves of percentage of the control versus the drug concentrations.
Experiment 1. HLGO, K562, HDF, and HMVEC cells were either cultured in 96-well plates at the indicated concentrations (FIGS. 2A and 2B) for 5 days in the presence of A4 prodrug, or after 2 hours exposure the drug-containing media was removed, fresh media added, and the cells cultured for an additional 5 days. Clonogenic growth was recorded after 5 days incubation for all treatments.
Experiment 2. HMVEC and HDF were cultured in 96-well microtiter plates initially containing 800 cells/well. The cells were cultured for 1 hour in the presence of the indicated concentrations of A4 prodrug ∀1 unit of alkaline phosphatase. The medium was removed, the cells washed, and fresh medium added, and the cells were incubated for an additional 5 days. Clonogenic growth was then established by the MTT assay.
(§3) The combretastatins are a family of naturally occurring tubulin binding agents comprising an A-,B-,C- and D- series of structures (U.S. Pat. Nos. 4,940,726; 4,996,237; 5,409,953; and 5,569,786). […] The compounds were added to microcultures in DMSO (i.e <0.5%) and toxicity was evaluated by MTT assay after 5-7 days in culture.
All of the compounds were evaluated for toxicity after a one-hour exposure in microculture and assayed for cytotoxicity by MTT assay after an additional 5 days' incubation in culture.

[2] = system: HMVEC (human neonatal microvascular endothelial cells); test: Cell survival by clonogenic assay (colony count or MTT) in HMVEC; conditions: for clonogenic toxicity to HMVEC after 1 hour exposure versus 6 hours: 1 and 6 hours exposure, washed, 3 more days, MTT assay (FIG. 5); for clonogenic cytotoxicity, HMVEC, limited exposure: exposure limited to 2 hours, clonogenic cytotoxicity estimated at 5 days (FIG. 2A)
Description: as §1
as §2, with “concentrations. […]” for “concentrations.”
as §3, with “culture. […]” for “culture.”

[3] = system: HL60 human leukemic cells; test: Cell survival by clonogenic assay in HL-60; assay type: cell-based
Description: (§4) Cell survival by clonogenic assay.

[4] = system: K562 human leukemic cells; test: Cell survival by clonogenic assay in K562; assay type: cell-based; conditions: 5 days exposure (FIG. 2B); read-out: IC50 clonogenic cytotoxicity, K562
Description: as §4

ocular vessels = test: Ocular neovascularization induced by lipid hydroperoxide (LHP) in rabbit eyes; assay type: in vivo; conditions: i.v. 40 mg/kg once a day for five days, eyes examined seven days later
Description: To simulate pathogenic ocular angiogenesis, ocular neovascularization was induced by administration of lipid hydroperoxide (LHP) by intra-corneal injection at a dosage of 30 μg to rabbit eyes. Seven to 14 days later, ocular vessels formed in the injected eyes due to LHP insult. The subjects were divided into two groups; those of one group were given combretastatin A4 disodium phosphate by intravenous administration at a dosage of 40 mg/kg once a day for five days, while a vehicle without combretastatin A4 disodium phosphate was administered to the other group by i.v. administration as a dosage of water for the same time period. The eyes of both groups were examined seven days later.

[5] = read-out: IC50 clonogenic toxicity values, HDF, compounds added in DMSO (<0.5%), MTT assay after 5-7 days in culture
[6] = read-out: IC50 values HDF, one-hour exposure, MTT assay after additional 5 days' incubation
[7] = read-out: IC50 clonogenic toxicity values, HMVEC, compounds added in DMSO (<0.5%), MTT assay after 5-7 days in culture
[8] = read-out: IC50 values HMVEC, one-hour exposure, MTT assay after additional 5 days' incubation
[9] = compounds added in DMSO (<0.5%), MTT assay after 5-7 days in culture, read-out: IC50 clonogenic toxicity values, HL-60

## COc1ccc(/C=C\c2cc(OC)c(OC)c(OC)c2)c(O)c1O [Combretastatin A1]
[1]; [5]
  pIC50: 7.70
[1]; [6]
  pIC50: 6.00 to 6.30
[2]
  clonogenic toxicity to HMVEC after 1 hour exposure versus 6 hours: did not induce maximum toxicity
[2]; [7]
  pIC50: 6.30
[2]; [8]
  pIC50: 4.82 to 5.00

## COc1ccc(/C=C\c2cc(OC)c3c(c2)OCO3)cc1O [Combretastatin A2, reference compound]
[1]; [5]
  pIC50: 7.46 to 7.60
[2]; [7]
  pIC50: 7.40 to 7.52
[3]; [9]
  pIC50: 7.82

## COc1ccc(/C=C\c2cc(O)c(OC)c(OC)c2)cc1O [Combretastatin A3, reference compound]
[1]; [5]
  pIC50: 8.00 to 8.10
[2]; [7]
  pIC50: < 7.92
[3]; [9]
  pIC50: 8.30

## COc1ccc(/C=C\c2cc(OC)c(OC)c(OC)c2)cc1OP(=O)([O-])[O-].[Na+].[Na+] [Combretastatin A4 Na2PO4, combretastatin A4 disodium phosphate]
[1]; 1 hour exposure, 1 unit alkaline phosphatase added (FIG. 3)
  cytotoxicity to HDF with added alkaline phosphatase, compared with HMVEC: the same for HMVEC and HDF
[1]; 1 hour exposure, no added alkaline phosphatase (FIG. 3)
  cytotoxicity to HDF without added alkaline phosphatase: lack of cytotoxicity
[1]; read-out: IC50 clonogenic cytotoxicity, HDF, 5 days exposure (FIG. 2B)
  pIC50: 8.60 to 8.82
[1]; [6]
  pIC50: < 6.30
[2]
  clonogenic cytotoxicity, HMVEC, limited exposure: only HMVEC showed IC50 cytotoxicity
[2]; listed as A4 prodrug
  clonogenic cytotoxicity, HMVEC, limited exposure: quite sensitive
[2]; read-out: IC50 clonogenic cytotoxicity, HMVEC, 5 days exposure (FIG. 2B)
  pIC50: 8.60 to 8.82
[2]; [8]
  pIC50: 6.82 to 7.12
[3]; 5 days exposure (FIG. 2B), read-out: IC50 clonogenic cytotoxicity, HL60
  pIC50: 8.60 to 8.82
[4]
  pIC50: 8.60 to 8.82
Ocular vessels
  reduction of vessels: ≥ 40%

## COc1ccc(/C=C\c2cc(OC)c(OC)c(OC)c2)cc1O [Combretastatin A4]
[1]; [5]
  pIC50: 8.70 to 9.00
[1]; [6]
  pIC50: 7.30
[2]; [7]
  pIC50: 8.70 to 9.00
[2]; [8]
  pIC50: 6.82 to 7.12
[3]; [9]
  pIC50: 8.70 to 9.00

## COc1ccc(CCc2cc(OC)c(OC)c(OC)c2)c(O)c1O [Combretastatin B1, reference compound]
[1]; [5]
  pIC50: 6.52 to 6.70
[2]; [7]
  pIC50: 6.52 to 6.70
[3]; [9]
  pIC50: 6.30

## COc1ccc(CCc2cc(O)c(OC)c(OC)c2)cc1O [Combretastatin B2, reference compound]
[1]; [5]
  pIC50: 5.96
[2]; [7]
  pIC50: 6.00 to 6.10
[3]; [9]
  pIC50: 6.90

## O=C1N[C@H]2[C@H](O)[C@H](O)[C@@H](O)[C@H](O)[C@@H]2c2cc3c(c(O)c21)OCO3 [Pancratistatin]
[1]; Homo sapiens, Fibroblast, read-out: IC50 values HDF
  pIC50: 4.70
[2]; Homo sapiens, HMVEC, read-out: IC50 values HMVEC
  pIC50: 4.60 to 4.70

## CC(=O)O[C@H]1C(=O)[C@@]2(C)[C@H]([C@H](OC(=O)c3ccccc3)[C@]3(O)C[C@H](OC(=O)[C@H](O)[C@@H](NC(=O)c4ccccc4)c4ccccc4)C(C)=C1C3(C)C)[C@]1(OC(C)=O)CO[C@@H]1C[C@@H]2O [taxol, reference compound]
[2]
  clonogenic toxicity to HMVEC after 1 hour exposure versus 6 hours: did not induce maximum toxicity

## CC(=O)O[C@@]12CO[C@@H]1C[C@H](O)[C@@]1(C)C(=O)[C@H](O)C3=C(C)[C@@H](OC(=O)[C@H](O)[C@@H](NC(=O)OC(C)(C)C)c4ccccc4)C[C@@](O)([C@@H](OC(=O)c4ccccc4)[C@H]21)C3(C)C [taxotere, reference compound]
[2]
  clonogenic toxicity to HMVEC after 1 hour exposure versus 6 hours: did not induce maximum toxicity

## Amino Combretastatin A4 Phosphoroamidate
[1]; [6]
  pIC50: 4.70 to 4.82
[2]; [8]
  pIC50: 5.00 to 5.10

## Combretastatin A1 Na2PO4
[1]; [6]
  pIC50: 5.00 to 5.30
[2]; [8]
  pIC50: 4.82 to 5.00

## Combretastatin A1 Nicotinamide PO4
[1]; [6]
  pIC50: < 5.00
[2]; [8]
  pIC50: 4.82 to 5.00

## Combretastatin A1 Piperazine PO4
[1]; [6]
  pIC50: 5.70 to 6.00
[2]; [8]
  pIC50: 4.82 to 5.00

## Pancratistatin Na2PO4
[1]; [6]
  pIC50: 4.10 to 4.22
[2]; [8]
  pIC50: 4.60 to 4.70
